# How the values were obtained:
# [1] = Pharmacokinetic study of oral zinc gluconate, plasma zinc by atomic absorption spectrometry; type: in vivo; conditions: mean of dog 1 and dog 2
# Procedure: Two unrelated nine-year old, healthy Labrador Retrievers (1 female and 1 male) were used in a pharmacokinetic study. Food was withheld for a 12-hour period prior to oral administration of zinc, and during the initial 6-hour testing period. Water was freely available. […] Heparinized blood samples (4 ml) were collected from the jugular vein before dosing (time 0) and 15, 30, 45, 60, 90, 120 minutes, and 4, 8, 12 and 24 hours after application of the drug. Plasma was stored at −20° C. until analysis for zinc using atomic absorption spectrometry.
# In addition the test was used to detect a difference between group-1 and group-2 before the study, at recheck-1, and at recheck-2 (significance level p<0.05).
# [2] = test system: hepatic copper accumulation; assay: Diet trial with randomized placebo-controlled zinc application: quantitative hepatic copper by neutron activation analysis of liver biopsies; type: in vivo, dog
# Procedure: All dogs were fed the same diet. […] The pharmacist was the only person aware of group allocations until completion of the study. Hepatic copper concentrations and histopathology were assessed along with clinical examinations and blood-work before and after treatment for a mean of 8 months (range 5-13), and 16 months (range 12-25). Plasma zinc concentrations were measured at additional time points during treatment.
# All dogs had completed their treatment with penicillamine prior to the start of this study. A medical history was obtained from all dogs and a physical examination was performed. […] Two biopsies were fixed in 10 percent neutral buffered formalin, and one biopsy was stored in a copper-free container for quantitative copper determination.
# A quantitative assay for copper in liver tissue was performed by neutron activation analysis, according to a protocol described by Teske et al, using the facilities described by Bode (Bode, P. (1990) Journal of Trace and Microprobe Techniques 8: 139; Teske et al. (1992) Vet Rec 131: 30-32). Quantitative copper concentrations were measured in lyophilised liver biopsies and reported in mg/kg dry weight liver.
# All dog owners were provided with the same specially manufactured diet. […] Metabolizable energy (measured according to Association of American Feed Control Officials protocol): 1650 kcal/kg as fed). […]
# [3] = test system: hepatic copper accumulation; assay: Example 7: hepatic copper before penicillamine, after penicillamine and after diet; type: in vivo, dog; conditions: all dogs fed the diet of Example 6, data not shown
# Procedure: FIG. 3 illustrates the effectiveness of the diet of the invention on hepatic copper concentrations (mg/kg dry weight) in 18 Labrador Retrievers compared with the effect of penicillamine alone. The key to the x-axis is as follows: 1=pre-penicillamine, 2=post-penicillamine/pre-food, 3=post-food. […] The dotted line represents the normal level of hepatic copper for adult dogs.
# During an investigation of the effect of zinc on hepatic copper concentration, hepatic copper concentration was measured in 18 pure-bred Labrador Retrievers. Half of the dogs were provided with a supplement of zinc and the other half were provided with a placebo. All of the dogs were fed the diet of Example 6. Hepatic copper 25 concentration was measured using the method of Example 6 at 3 time points: (1) before treatment with penicillamine; (2) after treatment with penicillamine but before treatment with the diet of Example 6; and (3) after the diet treatment.
# [4] = test system: canine dermal fibroblast cells ATP7A^C/C, ATP7A^C/T, ATP7A^T/T; assay: 64Cu incorporation and efflux (washout) in canine primary dermal fibroblasts, gamma counting; type: cell-based, dog; conditions: 100 μM
# Procedure: FIGS. 7A and 7B show copper isotope measurements in canine primary fibroblast cells. Copper isotope (64Cu) measurements in ATP7A^C/C, ATP7A^C/T and ATP7A^T/T cells after (A) 24 h or 48 h incubation with 10 μM, 50 μM and 100 μM 64Cu, or (B) 24 hrs incubation, followed by extensive washing and incubation in non copper isotope media for 2 h. Gamma-counts were corrected for cell culture conditions by means of a protein and MTS assay. Data points for 24 hr incubation represent the mean+/−SEM from two independent experiments performed in duplicate and expressed as counts per minute (cpm) of total cell protein. Other data points represent mean+/−SEM from one experiment in duplicate.
# The canine dermal fibroblast cells CDFIB44, CDFIB62 and CDFIB111 were isolated from euthanized female Labradors. Blood samples, taken prior to euthanizing were subject to the genetic test of the invention to ascertain increased risk to the disease. CDFIB111 was homozygous for the ATP7A SNP and CDFIB62 was heterozygote. […] was used as a control. […]
# For copper treatment, cells were incubated in 10, 50, and 100 μM copper for 24 or 48 h. […] Emission was measured in individual tubes containing media, washing steps, or lysate in a Packard B5003 gamma counter (Packard BioScience Benelux, Groningen, the Netherlands) between 450 and 800 keV for 2 minutes. […] Cells were then analysed for copper as described above. Copper accumulation was normalized to the protein concentration of the cell lysate (quantified using a Bio Rad Protein Assay Kit, Bio Rad) and an MTS colorimetric assay (3-[4,5-dimethylthiazol-2-yl]-5-[3-carboxymethoxyphenyl]-2-[4-sulfophenyl]-2H-tetrazolium) (Promega) was run in parallel. This quantitative assay detects living but not dead cells. The absorbance at 490 nm (test wavelength) and at 650 nm (reference wavelength) was measured using an enzyme-linked immunosorbent assay microplate reader (Bio-Rad); wells containing culture medium but no cells served as blanks. […]
# [5] = 24 h incubation, 2 h of washout
compound,measurement,setting,value
zinc gluconate,apparent oral clearance (CL/F),[1],2.116898 mL/min/kg
same,effect of adjunctive zinc on the de-coppering effect of the diet,[2]; diet + zinc gluconate 7.5 mg/kg PO BID versus diet + placebo,did not amplify the de-coppering effect
same,difference between copper levels in dogs treated with zinc and with the placebo,[3],no significant difference
[64Cu] [Cu64],isotope retained by ATP7A^C/C cells,[4]; [5],approximately 45%
same,isotope retained by ATP7A^T/T cells,[4]; [5],~90%
same,increase in incorporation of copper in ATP7A^T/T and ATP7A^C/T cells compared to ATP7A^C/C cells,[4]; after 24 h and 48 h,approximately two-fold
CC(C)(S)[C@@H](N)C(=O)O [penicillamine],mean hepatic copper concentration after completion of treatment with penicillamine,"[2]; 24 Labradors at the start of the diet trial, reference range 400 mg/kg dry weight",894 mg/kg dry weight

# — US9415067B2, “Genetic test for liver copper accumulation in dogs and low copper pet diet” (Mars, Inc., priority 2009, dated 2016)
